ChEMBL document CHEMBL1201862, “PubChem BioAssay data set” (2004)
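Where inhibition never reached the appropriate level, the endpoint shown equals the highest concentration tested. Otherwise, values were interpolated linearly from a five-concentration, 48-hour dose response in 96-well plates. GI50: concentration for 50% inhibition of growth.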 The source made the active and inactive calls. No stated cut-off is given here; in the data, active = GI50 up to about 1.1 µM and inactive = higher.

What was measured:
Experiment in all cases: inhibition of tumour cell growth, NCI panel, 48 h
[1] = system: UACC-257
[2] = system: SF-539
[3] = system: A498
[4] = system: OVCAR-8
[5] = system: NCI-H522
[6] = system: 786-0
[7] = system: HT-29
[8] = system: NCI/ADR-RES
[9] = system: SW-620
[10] = system: NCI-H460
[11] = system: MCF7
[12] = system: NCI-H23
[13] = system: SK-MEL-2
[14] = system: U-251
[15] = system: OVCAR-5
[16] = system: UACC-62
[17] = system: MDA-MB-231
[18] = system: PC-3
[19] = system: MDA-MB-435
[20] = system: MDA-N

| SMILES | GI50 [1] | GI50 [2] | GI50 [3] | GI50 [4] | GI50 [5] | GI50 [6] | GI50 [7] | GI50 [8] | GI50 [9] | GI50 [10] | GI50 [11] | GI50 [12] | GI50 [13] | GI50 [14] | GI50 [15] | GI50 [16] | GI50 [17] | GI50 [18] | GI50 [19] | GI50 [20] |
| --- | --- | --- | --- | --- | --- | --- | --- | --- | --- | --- | --- | --- | --- | --- | --- | --- | --- | --- | --- | --- |
| O=NN(CCCl)C(=O)NC1CCC(CC2CCC(NC(=O)N(CCCl)N=O)CC2)CC1 (stereo not given) | 3.29 µM (inactive) | 0.817 µM (active) | 31.4 µM (inactive) | 19.9 µM (inactive) | 1.53 µM (inactive) | 13.2 µM (inactive) | > 100 µM (inactive) | 24.3 µM (inactive) | 23.3 µM (inactive) | 1.74 µM (inactive) | 0.316 µM (active) | 34.1 µM (inactive) | 39.1 µM (inactive) | 1.24 µM (inactive) | > 100 µM (inactive) |  |  |  |  |  |
| O=C1CCCn2c3ccccc3c3ccnc1c32 | 29.9 µM (inactive) | 30.8 µM (inactive) | 14.9 µM (inactive) | 34.6 µM (inactive) | 34.8 µM (inactive) |  | 23.9 µM (inactive) | 36.6 µM (inactive) | 41.1 µM (inactive) | 34 µM (inactive) | 36.1 µM (inactive) | 50 µM (inactive) | 47.1 µM (inactive) | 40.8 µM (inactive) | 35.2 µM (inactive) | 29.2 µM (inactive) |  |  |  |  |
| Nc1cc2c(cc1[N+](=O)[O-])[nH]c1c(-c3ccccc3)nccc12 | 18 µM (inactive) | 24.4 µM (inactive) | 30.5 µM (inactive) | 30.8 µM (inactive) | 12 µM (inactive) |  | 14.5 µM (inactive) | 14.1 µM (inactive) | 25.9 µM (inactive) | 15.8 µM (inactive) | 26 µM (inactive) | 18.7 µM (inactive) | 20.2 µM (inactive) | 18.8 µM (inactive) | 27.1 µM (inactive) | 13.6 µM (inactive) |  |  |  |  |
| CCOC(=O)/C(=C/c1ccccn1)C(=O)c1ccccc1 | 13.8 µM (inactive) | 16.7 µM (inactive) | 18.9 µM (inactive) | 14.5 µM (inactive) | 5.47 µM (inactive) | 12.8 µM (inactive) | 13.9 µM (inactive) |  | 14.2 µM (inactive) | 23 µM (inactive) |  | 15.8 µM (inactive) | 13.9 µM (inactive) | 14.3 µM (inactive) | 19.1 µM (inactive) | 9.59 µM (inactive) |  |  |  |  |
| Cc1ccc(C(=O)CC(Cl)=C(Cl)Cl)cc1 | 65.9 µM (inactive) | > 100 µM (inactive) | > 100 µM (inactive) | > 100 µM (inactive) | 49.3 µM (inactive) | 63.1 µM (inactive) | > 100 µM (inactive) | > 100 µM (inactive) | > 100 µM (inactive) | > 100 µM (inactive) | > 100 µM (inactive) | > 100 µM (inactive) | > 100 µM (inactive) | > 100 µM (inactive) | > 100 µM (inactive) | > 100 µM (inactive) | 98.2 µM (inactive) | > 100 µM (inactive) | 55.7 µM (inactive) |  |
| COc1ccc(C2=CC(c3ccccc3)n3nnnc3N2)cc1 (stereo not given) | > 100 µM (inactive) | > 100 µM (inactive) |  | > 100 µM (inactive) | > 100 µM (inactive) | > 100 µM (inactive) | > 100 µM (inactive) | > 100 µM (inactive) | > 100 µM (inactive) | > 100 µM (inactive) | > 100 µM (inactive) | > 100 µM (inactive) | > 100 µM (inactive) | 56 µM (inactive) | > 100 µM (inactive) | > 100 µM (inactive) | > 100 µM (inactive) | > 100 µM (inactive) | > 100 µM (inactive) |  |
| O=P1(Oc2ccc(Cl)cc2Cl)Oc2ccc3ccccc3c2-c2c(ccc3ccccc23)O1 | 59 µM (inactive) | 21.6 µM (inactive) | 24.8 µM (inactive) | 40.1 µM (inactive) | 19.5 µM (inactive) |  | 42.1 µM (inactive) | > 68.5 µM (inactive) | 32.4 µM (inactive) | 32.4 µM (inactive) | 33.7 µM (inactive) | 29.8 µM (inactive) | 18.7 µM (inactive) | 21.1 µM (inactive) | 59.7 µM (inactive) | 26.7 µM (inactive) |  |  |  |  |
| CCOC(=O)C1CC(O)C(=O)N1C (stereo not given) | > 100 µM (inactive) | > 100 µM (inactive) |  |  |  | > 100 µM (inactive) | > 100 µM (inactive) |  |  |  | > 100 µM (inactive) | > 100 µM (inactive) | > 100 µM (inactive) | > 100 µM (inactive) | > 100 µM (inactive) | > 100 µM (inactive) | > 100 µM (inactive) | > 100 µM (inactive) | > 100 µM (inactive) | > 100 µM (inactive) |
| COc1ccc(C2=NNC(c3cc4cc(Br)ccc4nc3Cl)C2)cc1 (stereo not given) | 12.2 µM (inactive) |  | > 25 µM (inactive) |  |  | 15.9 µM (inactive) | 14.6 µM (inactive) |  | 10.9 µM (inactive) | 10 µM (inactive) | 6.67 µM (inactive) | 15.4 µM (inactive) | 11.8 µM (inactive) |  | > 25 µM (inactive) | 22.6 µM (inactive) |  | 11.9 µM (inactive) | 7.16 µM (inactive) | 6.31 µM (inactive) |
| CC12CCC(Br)C(C)(C)C1CC=C1C(=O)OCC1O2 (stereo not given) | 12.4 µM (inactive) | 60.8 µM (inactive) | 12 µM (inactive) | 11.6 µM (inactive) | 3.52 µM (inactive) | 19.4 µM (inactive) | 19 µM (inactive) | 20.4 µM (inactive) | 16.7 µM (inactive) | 14.6 µM (inactive) | 6.07 µM (inactive) | 11.8 µM (inactive) | 13.6 µM (inactive) | 9.77 µM (inactive) | 18.7 µM (inactive) | 8.59 µM (inactive) | 14.4 µM (inactive) | 9.89 µM (inactive) | 12 µM (inactive) |  |
| CC(=O)OCC1OC(Nc2nc(O)n(C)c(=O)c2-c2csc(N)n2)C(OC(C)=O)C(OC(C)=O)C1OC(C)=O (stereo not given) | > 100 µM (inactive) | > 100 µM (inactive) | > 100 µM (inactive) | > 100 µM (inactive) | > 100 µM (inactive) | > 100 µM (inactive) | > 100 µM (inactive) |  | > 100 µM (inactive) | > 100 µM (inactive) |  | > 100 µM (inactive) | > 100 µM (inactive) | > 100 µM (inactive) | > 100 µM (inactive) | > 100 µM (inactive) |  |  |  |  |
| CN(C)CCNC(=O)c1cc([N+](=O)[O-])cc2c1Oc1ccccc1O2 | 29.4 µM (inactive) | 24.8 µM (inactive) | 25.1 µM (inactive) | 14.4 µM (inactive) | 21.7 µM (inactive) | 15.6 µM (inactive) | 17.3 µM (inactive) | 23.9 µM (inactive) | 11.9 µM (inactive) | 4.23 µM (inactive) | 23.1 µM (inactive) | 51.8 µM (inactive) | 18.2 µM (inactive) | 29.4 µM (inactive) | 40.9 µM (inactive) | 11.9 µM (inactive) |  | 42 µM (inactive) | 39.7 µM (inactive) | 58.2 µM (inactive) |
| CC(C)c1ccc(O)c(=O)cc1 [GAMMA-THUJAPLICIN] | 3.38 µM (inactive) | 2.38 µM (inactive) | 19.6 µM (inactive) | 3.46 µM (inactive) | 3.39 µM (inactive) | 5.87 µM (inactive) | 4.73 µM (inactive) |  | 4.78 µM (inactive) | 5.28 µM (inactive) |  | 7.38 µM (inactive) | 5 µM (inactive) | 7.29 µM (inactive) | 14.3 µM (inactive) | 3.53 µM (inactive) |  |  |  |  |
